Numbers after ± are expanded uncertainties.
Assay: molar heat capacity at constant pressure
Details: 101.33 kPa, Vacuum adiabatic calorimetry

CC(C)(C)Cc1ccccc1 [(2,2-dimethylpropyl)benzene]
molar heat capacity at constant pressure [J/K/mol]
Details	Crystal	Liquid
5 K	0.3584 ± 0.017	–
6.43 K	0.79 ± 0.02	–
6.83 K	0.95 ± 0.02	–
7.1 K	1.05 ± 0.02	–
7.5 K	1.2 ± 0.02	–
7.91 K	1.41 ± 0.02	–
8.27 K	1.62 ± 0.03	–
8.57 K	1.81 ± 0.03	–
8.9 K	2.04 ± 0.03	–
9.24 K	2.3 ± 0.03	–
9.58 K	2.54 ± 0.03	–
9.91 K	2.77 ± 0.04	–
10 K	2.835 ± 0.036	–
10.24 K	3 ± 0.04	–
10.55 K	3.28 ± 0.04	–
10.86 K	3.54 ± 0.04	–
11.15 K	3.76 ± 0.04	–
11.45 K	4.08 ± 0.05	–
11.74 K	4.36 ± 0.05	–
12.04 K	4.69 ± 0.05	–
12.51 K	5.2 ± 0.05	–
13.17 K	6 ± 0.06	–
13.78 K	6.68 ± 0.06	–
14.4 K	7.42 ± 0.07	–
14.99 K	8.11 ± 0.07	–
15 K	8.156 ± 0.069	–
15.59 K	8.88 ± 0.07	–
16.17 K	9.65 ± 0.08	–
16.76 K	10.42 ± 0.08	–
17.35 K	11.18 ± 0.08	–
18.02 K	12.15 ± 0.09	–
18.82 K	13.47 ± 0.09	–
19.44 K	14.45 ± 0.1	–
20 K	15.37 ± 0.1	–
20.07 K	15.49 ± 0.1	–
20.87 K	16.75 ± 0.11	–
21.6 K	17.96 ± 0.11	–
22.31 K	19.18 ± 0.11	–
22.92 K	20.15 ± 0.11	–
23.68 K	21.34 ± 0.12	–
24.39 K	22.44 ± 0.12	–
25 K	23.31 ± 0.12	–
25.18 K	23.58 ± 0.12	–
25.93 K	24.66 ± 0.12	–
26.71 K	25.76 ± 0.12	–
27.52 K	26.89 ± 0.12	–
28.33 K	28.13 ± 0.12	–
29.16 K	29.24 ± 0.12	–
30 K	30.36 ± 0.1	–
30.01 K	30.42 ± 0.1	–
30.87 K	31.42 ± 0.11	–
31.75 K	32.74 ± 0.11	–
32.64 K	33.75 ± 0.11	–
33.41 K	34.7 ± 0.11	–
34.46 K	36.13 ± 0.12	–
35 K	36.76 ± 0.12	–
35.4 K	37.3 ± 0.12	–
36.35 K	38.43 ± 0.12	–
37.32 K	39.67 ± 0.12	–
38.31 K	40.94 ± 0.12	–
39.3 K	41.89 ± 0.13	–
40 K	42.83 ± 0.13	–
40.33 K	43.02 ± 0.13	–
41.36 K	44.25 ± 0.13	–
42.4 K	45.57 ± 0.13	–
43.47 K	46.7 ± 0.14	–
44.54 K	47.93 ± 0.14	–
45 K	48.21 ± 0.14	–
45.63 K	48.9 ± 0.14	–
46.73 K	49.79 ± 0.14	–
47.83 K	50.85 ± 0.14	–
48.96 K	51.7 ± 0.14	–
50 K	52.68 ± 0.15	–
50.08 K	52.7 ± 0.15	–
51.22 K	53.77 ± 0.15	–
52.37 K	54.62 ± 0.15	–
53.54 K	55.66 ± 0.15	–
54.59 K	56.42 ± 0.15	–
56 K	57.64 ± 0.16	–
57.09 K	58.58 ± 0.16	–
58.29 K	59.72 ± 0.16	–
59.5 K	60.71 ± 0.16	–
60 K	61.21 ± 0.16	–
60.59 K	61.7 ± 0.16	–
61.93 K	63.06 ± 0.17	–
63.16 K	64.15 ± 0.17	–
64.57 K	65.26 ± 0.17	–
65.64 K	66.12 ± 0.17	–
66.89 K	67.2 ± 0.18	–
68.15 K	68 ± 0.18	–
69.4 K	69.06 ± 0.18	–
70 K	69.54 ± 0.18	–
70.99 K	70.19 ± 0.18	–
72.9 K	71.7 ± 0.18	–
74.83 K	72.92 ± 0.19	–
76.87 K	74.43 ± 0.19	–
78.7 K	75.75 ± 0.19	–
79.98 K	76.76 ± 0.19	–
80 K	76.67 ± 0.19	–
80.65 K	77.08 ± 0.19	–
81.93 K	78.1 ± 0.2	–
82.61 K	78.8 ± 0.2	–
83.87 K	79.5 ± 0.2	–
84.58 K	80.15 ± 0.2	–
85.81 K	80.93 ± 0.2	–
86.55 K	81.42 ± 0.2	–
87.75 K	82.4 ± 0.21	–
88.51 K	82.92 ± 0.21	–
89.69 K	83.89 ± 0.21	–
90 K	84.14 ± 0.28	–
90.49 K	84.64 ± 0.29	–
91.64 K	85.39 ± 0.29	–
92.48 K	86.14 ± 0.29	–
93.59 K	86.97 ± 0.29	–
95.54 K	88.3 ± 0.29	–
97.5 K	89.8 ± 0.29	–
99.45 K	91.29 ± 0.29	–
100 K	91.54 ± 0.29	–
101.41 K	92.54 ± 0.29	–
103.37 K	94.12 ± 0.29	–
105.32 K	95.53 ± 0.3	–
107.28 K	97.03 ± 0.3	–
109.23 K	98.11 ± 0.3	–
110 K	98.78 ± 0.3	–
111.18 K	99.61 ± 0.3	–
113.14 K	100.85 ± 0.3	–
115.09 K	102.6 ± 0.3	–
117.46 K	104.26 ± 0.3	–
119.37 K	105.34 ± 0.31	–
120 K	105.9 ± 0.3	–
121.31 K	106.92 ± 0.31	–
123.26 K	108 ± 0.31	–
125.2 K	109.67 ± 0.31	–
127.13 K	110.75 ± 0.31	–
129.07 K	111.99 ± 0.31	–
130 K	112.8 ± 0.3	–
131 K	113.49 ± 0.31	–
132.93 K	115.07 ± 0.32	–
134.85 K	116.15 ± 0.32	–
136.78 K	117.4 ± 0.32	–
138.7 K	118.65 ± 0.32	–
140 K	119.7 ± 0.3	–
140.61 K	120.14 ± 0.32	–
142.53 K	121.39 ± 0.32	–
144.43 K	122.97 ± 0.32	–
146.34 K	124.22 ± 0.32	–
148.22 K	125.63 ± 0.33	–
150 K	126.5 ± 0.3	–
150.12 K	126.88 ± 0.33	–
152.5 K	128.37 ± 0.33	–
155.37 K	130.04 ± 0.33	–
158.24 K	132.28 ± 0.33	–
160 K	133.4 ± 0.3	–
161.11 K	134.11 ± 0.33	–
163.99 K	135.94 ± 0.34	–
166.87 K	138.27 ± 0.34	–
169.76 K	140.35 ± 0.34	–
170 K	140.3 ± 0.3	–
172.66 K	141.93 ± 0.34	–
175.55 K	144.34 ± 0.34	–
178.45 K	146.25 ± 0.35	–
180 K	147.4 ± 0.4	–
181.36 K	148.33 ± 0.35	–
184.27 K	150.32 ± 0.35	–
187.18 K	152.57 ± 0.35	–
190 K	154.6 ± 0.4	–
190.11 K	154.9 ± 0.36	–
194.33 K	157.56 ± 0.36	–
197.18 K	160.05 ± 0.36	–
200 K	162 ± 0.4	–
200.37 K	162.3 ± 0.36	–
203.56 K	164.63 ± 0.36	–
206.46 K	166.79 ± 0.37	–
209.27 K	168.78 ± 0.37	–
210 K	169.1 ± 0.4	–
212.11 K	170.36 ± 0.37	–
215.02 K	172.52 ± 0.37	–
217.92 K	174.27 ± 0.37	–
220 K	175.9 ± 0.4	–
220.82 K	176.51 ± 0.38	–
223.7 K	178.18 ± 0.38	–
226.59 K	180.26 ± 0.38	–
229.46 K	182.33 ± 0.38	–
230 K	182.6 ± 0.4	–
232.33 K	184.33 ± 0.38	–
235.2 K	186.58 ± 0.39	–
238.05 K	188.32 ± 0.39	–
239.91 K	189.73 ± 0.39	–
240 K	189.4 ± 0.4	–
240.89 K	190.48 ± 0.39	–
240.92 K	190.57 ± 0.39	–
241.92 K	190.98 ± 0.39	–
242.92 K	191.9 ± 0.39	–
243.72 K	192.4 ± 0.39	–
243.92 K	192.73 ± 0.39	–
244.93 K	193.73 ± 0.39	–
246 K	195.64 ± 0.41	–
246.56 K	197.88 ± 0.4	–
246.6 K	202.12 ± 0.4	–
247.1 K	197.38 ± 0.4	–
248.19 K	200.88 ± 0.41	–
249.28 K	206.03 ± 0.42	–
249.34 K	207.61 ± 0.42	–
250 K	196.1 ± 0.4	–
250.36 K	213.26 ± 0.44	–
251.42 K	222.66 ± 2	–
252.01 K	245.27 ± 0.69	–
252.39 K	417.05 ± 1.1	–
252.46 K	249.27 ± 1	–
253.4 K	315.03 ± 3.3	–
254.15 K	685.44 ± 34	–
254.18 K	538.11 ± 34	–
254.69 K	1232.2 ± 620	–
254.95 K	2919.2 ± 560	–
255.01 K	4462.3 ± 540	–
255.06 K	8092.4 ± 530	–
255.09 K	5555.7 ± 500	–
255.17 K	8555.5 ± 160	–
255.21 K	9885.8 ± 180	–
255.43 K	199.7 ± 0.4	249.6 ± 0.5
256.43 K	–	250.01 ± 19
257.37 K	–	252.18 ± 0.45
257.44 K	–	250.6 ± 0.45
258.44 K	–	251.09 ± 0.45
258.78 K	–	252.09 ± 0.45
259.45 K	–	251.68 ± 0.45
260 K	–	252 ± 0.5
260.46 K	–	252.26 ± 0.45
261.48 K	–	252.92 ± 0.45
262.48 K	–	253.42 ± 0.45
263.49 K	–	254 ± 0.45
264.48 K	–	254.59 ± 0.45
264.99 K	–	254.92 ± 0.46
265.49 K	–	255.09 ± 0.46
266.49 K	–	255.67 ± 0.46
267.49 K	–	256 ± 0.46
268.67 K	–	256.58 ± 0.46
270 K	–	257.2 ± 0.5
271.15 K	–	257.83 ± 0.46
277.28 K	–	260.82 ± 0.46
280 K	–	262.5 ± 0.5
283.39 K	–	264.31 ± 0.46
289.47 K	–	267.64 ± 0.47
290 K	–	268 ± 0.5
295.52 K	–	270.8 ± 0.47
298.15 K	–	271.9 ± 0.5
300 K	–	272.6 ± 0.5
300.23 K	–	272.71 ± 0.47
300.79 K	–	273.13 ± 0.47
301.54 K	–	273.46 ± 0.47
304.11 K	–	274.29 ± 0.47
304.68 K	–	274.54 ± 0.47
307.54 K	–	275.37 ± 0.48
307.98 K	–	275.62 ± 0.48
308.57 K	–	275.71 ± 0.48
310 K	–	276.3 ± 0.5
311.84 K	–	276.95 ± 0.48
312.43 K	–	277.2 ± 0.48
313.51 K	–	277.62 ± 0.48
315.67 K	–	278.2 ± 0.48
316.31 K	–	278.53 ± 0.48
319.32 K	–	279.36 ± 0.48
319.51 K	–	279.86 ± 0.48
320 K	–	279.8 ± 0.5
320.02 K	–	279.95 ± 0.48
323.33 K	–	281.36 ± 0.48
323.89 K	–	281.44 ± 0.48
325.26 K	–	281.86 ± 0.48
327.15 K	–	283.02 ± 0.48
327.74 K	–	283.02 ± 0.48
330 K	–	284.4 ± 0.5
330.95 K	–	285.27 ± 0.49
331.19 K	–	285.18 ± 0.49
331.59 K	–	285.27 ± 0.49
334.56 K	–	287.35 ± 0.49
335.41 K	–	288.01 ± 0.49
337.07 K	–	289.09 ± 0.49
338.32 K	–	289.92 ± 0.49
339.23 K	–	290.51 ± 0.49
340 K	–	290.8 ± 0.5
342.07 K	–	292.33 ± 0.49
342.92 K	–	292.67 ± 0.49
343.02 K	–	292.75 ± 0.49
345.8 K	–	294.83 ± 0.5
346.79 K	–	295.24 ± 0.5
348.74 K	–	295.99 ± 0.5
349.52 K	–	296.82 ± 0.5
350 K	–	297 ± 0.5
350.54 K	–	297.49 ± 0.5

Source: the NIST ThermoML archive (doi:10.1016/j.jct.2011.12.010)
